Results published in US12509444B2, “Compounds and methods for CD73 modulation and indications therefor” (Plexxikon Inc., priority 2019, dated 2025).

Legend:
[1] = target: T1, Human CD73 (amino acid residues 27-549) (Homo sapiens, UniProt P21589); assay: CD73 enzymatic assay (luciferase-based indirect assay, CellTiter-Glo); format: biochemical; settings: 0.4 nM CD73, 150 μM AMP, 1 hour at room temperature
T1 construct: Human CD73 (amino acid residues 27-549); His tag (N); made in house; host or cells: E. coli
T1 sequence (P21589 27-549): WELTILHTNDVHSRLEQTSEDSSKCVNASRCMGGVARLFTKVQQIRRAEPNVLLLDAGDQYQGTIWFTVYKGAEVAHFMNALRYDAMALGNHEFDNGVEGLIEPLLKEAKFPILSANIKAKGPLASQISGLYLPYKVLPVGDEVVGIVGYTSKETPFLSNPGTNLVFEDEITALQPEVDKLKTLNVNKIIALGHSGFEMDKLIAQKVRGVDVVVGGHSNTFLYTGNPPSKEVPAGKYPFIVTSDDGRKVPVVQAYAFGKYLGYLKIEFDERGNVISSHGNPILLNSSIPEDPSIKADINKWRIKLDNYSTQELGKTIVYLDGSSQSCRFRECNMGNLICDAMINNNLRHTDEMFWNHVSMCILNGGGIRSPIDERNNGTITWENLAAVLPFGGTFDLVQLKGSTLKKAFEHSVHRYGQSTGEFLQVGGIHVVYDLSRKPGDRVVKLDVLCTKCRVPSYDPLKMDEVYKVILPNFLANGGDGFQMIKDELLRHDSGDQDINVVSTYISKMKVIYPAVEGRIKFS
Summary of the method: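 His-tagged human CD73 (27-549) from E. coli, 0.4 nM, with 150 μM AMP in 50 mM HEPES pH 7.4, 0.01% Tween 20; 1 h at room temperature. AMP remaining read by CellTiter-Glo 2.0 luminescence with 1 μM final ATP after 30 min. IC50 from nonlinear regression of % inhibition.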

human CD73 = target: T2, human CD73 (Homo sapiens, UniProt P21589); assay: Inhibitor activity against CD73 in cell based assay (CD73 expressing CHO-K1 cells); settings: CHO-K1 cells expressing human CD73, 150 μM AMP, 4 hours of incubation; read-out: CHO-K1 CELL VARIANT: CD73 IC50
T2 construct: expressed in transfected cells
T2 sequence (P21589 27-549): T1 sequence (P21589 27-549)
Procedure: Determine Inhibitor Activity Against CD73 in Cell Based Assay
CD73 expressing CHO-K1 cell clones were generated upon stable transfection of a plasmid expressing human CD73 under the control of CMV promoter. Cells were selected in Ham's F-12K (Kaighn's) media supplemented with 10% fetal bovine serum and 1 mg/ml G418 at 37° C. in a humidified incubator supplied with 5% CO2. The assays were performed as follows. Cells were seeded in a 96 well plate in 50 μL of culture media at a density of 1×10^4 per well. Compound at a maximal concentration of 5 mM was serially diluted 1:3 in DMSO for a total of 8 point titration. A 2 μL aliquot of each dilution point was added to 248 μL culture media and 25 µL was added to each well, providing 10 μM compound at the maximum concentration point. AMP was diluted in culture media and 25 μL was added to each well with a final concentration of 150 μM. 4 wells containing 0.2% DMSO treated cells and AMP served as high controls and 4 wells containing media only with 0.2% DMSO and AMP served as low controls. After 4 hours of incubation, 20 μL of the supernatant was transferred to a 384 well plate. AMP level in supernatant was measured indirectly by adding 5 μL of CellTiter-Glo® 2.0 reagent and 5 μL of ATP with a final concentration of 1 μM. Following incubation of plate at room temperature for 30 minutes, luminescent signal was read on a Tecan plate reader. The percentage inhibition at individual concentrations relative to high and low controls was calculated. The data were analyzed by using nonlinear regression to generate IC50 values.

| Structure (SMILES) | IC50 [1] [µM] | IC50 (human CD73) [µM] |
| --- | --- | --- |
| O=C(NCC(F)(F)F)O[C@@H]1CCN(c2cn[nH]c(=O)c2Cl)C1 [P-0096, (R)-1-(5-chloro-6-oxo-1,6-dihydropyridazin-4-yl)pyrrolidin-3-yl (2,2,2-trifluoroethyl)carbamate] | 0.001 to 10 | 0.001 to 10 |
| O=C(NC1CCOCC1)O[C@@H]1CCN(c2cn[nH]c(=O)c2Cl)C1 [P-0097, (R)-1-(5-chloro-6-oxo-1,6-dihydropyridazin-4-yl)pyrrolidin-3-yl (tetrahydro-2H-pyran-4-yl)carbamate] | 0.001 to 10 | 0.001 to 10 |
| CN(C(=O)O[C@@H]1CCN(c2cn[nH]c(=O)c2Cl)C1)C1CCCCC1 [P-0099, (R)-1-(5-chloro-6-oxo-1,6-dihydropyridazin-4-yl)pyrrolidin-3-yl cyclohexyl(methyl)carbamate] | 0.001 to 10 | 10 to 100 |
| O=C(NCc1ccccc1)O[C@@H]1CCN(c2cn[nH]c(=O)c2Cl)C1 [P-0100, (R)-1-(5-chloro-6-oxo-1,6-dihydropyridazin-4-yl)pyrrolidin-3-yl benzylcarbamate] | 0.001 to 10 | 10 to 100 |
| O=C(Nc1cccc(Cl)c1)O[C@@H]1CCN(c2cn[nH]c(=O)c2Cl)C1 [P-0101, (R)-1-(5-chloro-6-oxo-1,6-dihydropyridazin-4-yl)pyrrolidin-3-yl (3-chlorophenyl)carbamate] | 0.001 to 10 | 0.001 to 10 |
| CCOC(=O)N1CCC(NC(=O)O[C@@H]2CCN(c3cn[nH]c(=O)c3Cl)C2)CC1 [P-0102, ethyl (R)-4-((((1-(5-chloro-6-oxo-1,6-dihydropyridazin-4-yl)pyrrolidin-3-yl)oxy)carbonyl)amino) piperidine-1-carboxylate] | 0.001 to 10 | 0.001 to 10 |
| O=C(N[C@@H]1CCN(c2cn[nH]c(=O)c2Cl)C1)N[C@@H]1CCN(c2cn[nH]c(=O)c2Cl)C1 [P-0103, 1,3-bis((R)-1-(5-chloro-6-oxo-1,6-dihydropyridazin-4-yl)pyrrolidin-3-yl)urea] | 0.001 to 10 | 10 to 100 |
| O=C(NC1CC(F)(F)C1)O[C@@H]1CCN(c2cn[nH]c(=O)c2Cl)C1 [P-0104, (R)-1-(5-chloro-6-oxo-1,6-dihydropyridazin-4-yl)pyrrolidin-3-yl (3,3-difluorocyclobutyl)carbamate] | 0.001 to 10 | 0.001 to 10 |
| O=C(NC1CCN(C(=O)CO)CC1)O[C@@H]1CCN(c2cn[nH]c(=O)c2Cl)C1 [P-0105, (R)-1-(5-chloro-6-oxo-1,6-dihydropyridazin-4-yl)pyrrolidin-3-yl (1-(2-hydroxyacetyl)piperidin-4-yl)carbamate] | 0.001 to 10 | 0.001 to 10 |
| O=C(NC1CCC(F)(F)CC1)O[C@@H]1CCN(c2cn[nH]c(=O)c2Cl)C1 [P-0106, (R)-1-(5-chloro-6-oxo-1,6-dihydropyridazin-4-yl)pyrrolidin-3-yl (4,4-difluorocyclohexyl)carbamate] | 0.001 to 10 | 0.001 to 10 |
| O=C(N[C@H]1CCOC1)O[C@@H]1CCN(c2cn[nH]c(=O)c2Cl)C1 [P-0107, (R)-1-(5-chloro-6-oxo-1,6-dihydropyridazin-4-yl)pyrrolidin-3-yl ((S)-tetrahydrofuran-3-yl)carbamate] | 0.001 to 10 | 0.001 to 10 |
| O=C(N[C@@H]1CCOC1)O[C@@H]1CCN(c2cn[nH]c(=O)c2Cl)C1 [P-0108, (R)-1-(5-chloro-6-oxo-1,6-dihydropyridazin-4-yl)pyrrolidin-3-yl ((R)-tetrahydrofuran-3-yl)carbamate] | 0.001 to 10 | 0.001 to 10 |
| C[C@H]1CC[C@H](NC(=O)O[C@@H]2CCN(c3cn[nH]c(=O)c3Cl)C2)CC1 [P-0109, (R)-1-(5-chloro-6-oxo-1,6-dihydropyridazin-4-yl)pyrrolidin-3-yl ((1r,4R)-4-methylcyclohexyl)carbamate] | 0.001 to 10 | 0.001 to 10 |
| C[C@H]1CC[C@@H](NC(=O)O[C@@H]2CCN(c3cn[nH]c(=O)c3Cl)C2)CC1 [P-0110, (R)-1-(5-chloro-6-oxo-1,6-dihydropyridazin-4-yl)pyrrolidin-3-yl ((1s,4S)-4-methylcyclohexyl)carbamate] | 0.001 to 10 | 0.001 to 10 |
| O=C(NC1C2CC3CC(C2)CC1C3)O[C@@H]1CCN(c2cn[nH]c(=O)c2Cl)C1 (stereo partly drawn) [P-0111, (R)-1-(5-chloro-6-oxo-1,6-dihydropyridazin-4-yl)pyrrolidin-3-yl adamantan-2-ylcarbamate] | 0.001 to 10 | 0.001 to 10 |
| O=C(NC1CCC(F)(F)C1)O[C@@H]1CCN(c2cn[nH]c(=O)c2Cl)C1 (stereo partly drawn) [P-0112, (R)-1-(5-chloro-6-oxo-1,6-dihydropyridazin-4-yl)pyrrolidin-3-yl (3,3-difluorocyclopentyl)carbamate] | 0.001 to 10 | 0.001 to 10 |
| CC1(NC(=O)O[C@@H]2CCN(c3cn[nH]c(=O)c3Cl)C2)CCOC1 (stereo partly drawn) [P-0113, (R)-1-(5-chloro-6-oxo-1,6-dihydropyridazin-4-yl)pyrrolidin-3-yl (3-methyltetrahydrofuran-3-yl)carbamate] | 0.001 to 10 | 0.001 to 10 |

Next, values leading:

| IC50 [1] [µM] | IC50 (human CD73) [µM] | Structure (SMILES) |
| --- | --- | --- |
| 0.001 to 10 | 10 to 100 | O=C(NC1CCC1)N[C@@H]1CCN(c2cn[nH]c(=O)c2Cl)C1 [P-0085, (R)-1-(1-(5-chloro-6-oxo-1,6-dihydropyridazin-4-yl)pyrrolidin-3-yl)-3-cyclobutylurea] |
| 0.001 to 10 | 10 to 100 | O=C(NC1CCS(=O)(=O)CC1)N[C@@H]1CCN(c2cn[nH]c(=O)c2Cl)C1 [P-0086, (R)-1-(1-(5-chloro-6-oxo-1,6-dihydropyridazin-4-yl)pyrrolidin-3-yl)-3-(1,1-dioxidotetrahydro-2H-thiopyran-4-yl)urea] |
| 0.001 to 10 | 10 to 100 | O=C(CO)NC1CCC(NC(=O)N[C@@H]2CCN(c3cn[nH]c(=O)c3Cl)C2)CC1 (stereo partly drawn) [P-0088, (R)-N-(4-(3-(1-(5-chloro-6-oxo-1,6-dihydropyridazin-4-yl)pyrrolidin-3-yl)ureido)cyclohexyl)-2-hydroxyacetamide] |
| 0.001 to 10 | 0.001 to 10 | CC(C)(C)OC(=O)N1CCC(NC(=O)O[C@@H]2CCN(c3cn[nH]c(=O)c3Cl)C2)CC1 [P-0089, tert-butyl (R)-4-((((1-(5-chloro-6-oxo-1,6-dihydropyridazin-4-yl)pyrrolidin-3-yl)oxy)carbonyl)amino) piperidine-1-carboxylate] |
| 0.001 to 10 | 0.001 to 10 | CC(=O)N1CCC(NC(=O)O[C@@H]2CCN(c3cn[nH]c(=O)c3Cl)C2)CC1 [P-0090, (R)-1-(5-chloro-6-oxo-1,6-dihydropyridazin-4-yl)pyrrolidin-3-yl (1-acetylpiperidin-4-yl)carbamate] |
| 0.001 to 10 | 0.001 to 10 | CS(=O)(=O)NC1CCC(NC(=O)N[C@@H]2CCN(c3cn[nH]c(=O)c3Cl)C2)CC1 (stereo partly drawn) [P-0091, (R)-N-(4-(3-(1-(5-chloro-6-oxo-1,6-dihydropyridazin-4-yl)pyrrolidin-3-yl)ureido)cyclohexyl) methanesulfonamide] |
| 0.001 to 10 | 0.001 to 10 | O=C(NC1CC1)O[C@@H]1CCN(c2cn[nH]c(=O)c2Cl)C1 [P-0092, (R)-1-(5-chloro-6-oxo-1,6-dihydropyridazin-4-yl)pyrrolidin-3-yl cyclopropylcarbamate] |
| 0.001 to 10 | 0.001 to 10 | O=C(Nc1ccccc1)O[C@@H]1CCN(c2cn[nH]c(=O)c2Cl)C1 [P-0093, (R)-1-(5-chloro-6-oxo-1,6-dihydropyridazin-4-yl)pyrrolidin-3-yl phenylcarbamate] |
| 0.001 to 10 | 10 to 100 | O=C(Nc1ccc(Cl)cc1)O[C@@H]1CCN(c2cn[nH]c(=O)c2Cl)C1 [P-0094, (R)-1-(5-chloro-6-oxo-1,6-dihydropyridazin-4-yl)pyrrolidin-3-yl (4-chlorophenyl)carbamate] |
| 0.001 to 10 | 0.001 to 10 | O=C(NCC1CCCC1)O[C@@H]1CCN(c2cn[nH]c(=O)c2Cl)C1 [P-0095, (R)-1-(5-chloro-6-oxo-1,6-dihydropyridazin-4-yl)pyrrolidin-3-yl (cyclopentylmethyl)carbamate] |
